Assay results published in paper PMC11093748, “De novo identification of CD4^+ T cell epitopes” (Nature Methods, 2024).

Key:
Format in all cases: cell-based, mouse
[1] = tested on: pooled TCR1, TCR2, TCR3, TCR5, TCR7, TCR24, TCR37 with one TCR left out; assay: Multiplexed TCR/library dropout screen, individual ES of each leave-one-out pool; conditions: for INDIVIDUAL ES LOO_TCR1: leave-one-out pool without TCR1; for INDIVIDUAL ES LOO_TCR2: leave-one-out pool without TCR2; for INDIVIDUAL ES LOO_TCR3: leave-one-out pool without TCR3; for INDIVIDUAL ES LOO_TCR5: leave-one-out pool without TCR5; for INDIVIDUAL ES LOO_TCR7: leave-one-out pool without TCR7; for INDIVIDUAL ES LOO_TCR24: leave-one-out pool without TCR24; for INDIVIDUAL ES LOO_TCR37: leave-one-out pool without TCR37
Description: Supplement 41592_2024_2255_MOESM7_ESM.xlsx, sheet "leave-one-out analysis" | column: LOO_TCR1; LOO_TCR2; LOO_TCR3; LOO_TCR5; LOO_TCR7; LOO_TCR24; LOO_TCR37

TCR3 = assay: Multiplexed TCR/library dropout screen, mean ES; conditions: two I-Ag7 libraries combined, mixture of seven TCRs, dropout replicates (n = 6)
Description: (§1) Finally, we sought to address two important aspects of antigen discovery techniques. First, we assessed whether SABR-II screens can directly read out the strength of TCR–pMHC binding. To that end, we selected six known BDC2.5 ligands across a range of ES values (Extended Data Fig. 9a) and we measured the functional avidity of their recognition by BDC2.5 TCR in vitro. Bone-marrow-derived dendritic cells were pulsed with a range of concentrations of peptides corresponding to the epitopes and used to present the peptides to BDC2.5 TCR-expressing 5KC cells. Secretion of mIL-2 was measured by ELISA and used to determine the functional avidity as EC50 (concentration of the peptide needed to induce half-maximal mIL-2) (Extended Data Fig. 9b). We observed that there was a modest negative correlation between the EC50 values of the epitopes and their ES values (Extended Data Fig. 9c). […] Second, we evaluated whether we could increase the throughput of SABR-II screens by multiplexing TCRs and libraries at the cellular level. We combined the two previously described I-Ag7 libraries in equal proportions according to their size and used it as a single library. We also employed a dropout strategy, in which a mixture of seven TCRs was screened in replicate, where one TCR was left out in each replicate. After single enrichment, we determined the mean ES of all replicates that contained a given TCR and used it to identify the cognate epitope of that TCR (Extended Data Fig. 10 and Supplementary Table 6). Using this strategy, we were able to successfully recapitulate the results for four out of four TCRs previously identified in individual screens. The use of such a strategy will greatly enhance the throughput or SABR-II screens by reducing the hands-on sort time from 1 h per TCR to 20 min per TCR.
(§2) For SABR library screens, 3 × 10^6 NFAT–GFP Jurkat cells expressing the SABR library were labeled with CellTrace Violet (BioLegend) according to the manufacturer’s protocol before incubation with 3 × 10^6 Jurkat cells expressing the TCR of interest. These mixtures were incubated in a six-well plate for 16–20 h. Cells were stained with anti-CD69-APC-Cy7 where indicated (BioLegend) and the top 1–2% of GFP^+CD69^+ cells were sorted for genomic DNA extraction, indexing and sequencing (see below). Multiplexed assays were scaled on a per-TCR basis (for example 3 × 10^6 for each of three TCRs against 9 × 10^6 library cells). For single SABR assays, unless otherwise defined, 5 × 10^5 SABR expressing NFAT–GFP Jurkat cells (or 5KC cells) were labeled with CellTrace Violet (BioLegend) according to the manufacturer’s protocol before incubation with 5 × 10^5 TCR-expressing Jurkat cells (or 5KC cells) in a round-bottom 96-well plate for 16–20 h. Cells were stained with anti-CD69-APC-Cy7 when indicated and acquired on the Attune NxT flow cytometer (Thermo Fisher Scientific). All flow analysis was performed using FlowJo (BD). For Daudi cell co-culture, 1 × 10^6 Jurkat cells expressing the TCR of interest were incubated with 1 × 10^6 Daudi cells expressing a SABR of interest for 3 days. On day 3, cells were labeled with anti-RT1B-PE and anti-Fas-APC-Cy7 before being acquired on the Attune NxT flow cytometer.
(§3) Genomic DNA was extracted from sorted cells immediately after sorting, using the PureLink genomic DNA extraction kit (Life Technologies). The integrated SABR vectors were amplified with KOD polymerase (Millipore) and two rounds of amplification. In the first round, IDT-UD-SABR-C2-F and IDT-UD-SABR-C2-R primers were used to amplify the epitope. In the second round, UDI0001-R and UDI0001-F primers (representative of index 1) were used to add Illumina unique dual indexes (UDIs) to the amplicons. A different UDI was used for each sample. The reactions were pooled and purified with the NucleoSpin gel and PCR purification kit (Takara). The purified PCR product was checked before sequencing using 2% agarose gel and subjected to sequencing on a HiSeq4000 (Fulgent Genetics). […]

TCR37 = assay: Multiplexed TCR/library dropout screen, mean ES; conditions: Avg ES for all the replicates that contain that TCR (TCR37)
Description: as §1, §2, §3

TCR2 = assay: Multiplexed TCR/library dropout screen, mean ES; conditions: Avg ES for all the replicates that contain that TCR (TCR2)
Description: as §1, §2, §3

TCR5 = assay: Multiplexed TCR/library dropout screen, mean ES; conditions: two I-Ag7 libraries combined, mixture of seven TCRs, dropout replicates (n = 6)
Description: as §1, §2, §3

TCR7 = assay: Multiplexed TCR/library dropout screen, mean ES; conditions: two I-Ag7 libraries combined, mixture of seven TCRs, dropout replicates (n = 6)
Description: as §1, §2, §3

TCR1 = assay: Multiplexed TCR/library dropout screen, mean ES; conditions: two I-Ag7 libraries combined, mixture of seven TCRs, dropout replicates (n = 6); one biological experiment
Description: as §1, §2, §3

TCR24 = assay: Multiplexed TCR/library dropout screen, mean ES; conditions: Avg ES for all the replicates that contain that TCR (TCR24)
Description: as §1, §2, §3

| Sequence | INDIVIDUAL ES LOO_TCR1 [1] | INDIVIDUAL ES LOO_TCR2 [1] | INDIVIDUAL ES LOO_TCR3 [1] | INDIVIDUAL ES LOO_TCR5 [1] | INDIVIDUAL ES LOO_TCR7 [1] | INDIVIDUAL ES LOO_TCR24 [1] | INDIVIDUAL ES LOO_TCR37 [1] | Mean Dropout Enrichment Score (TCR3) | ES for each dropout, LOO_TCR37 (TCR37) | ES for each dropout, LOO_TCR2 (TCR2) | Mean Dropout Enrichment Score (TCR5) | Mean Dropout Enrichment Score (TCR7) | Mean Dropout Enrichment Score (TCR1) | ES for each dropout, LOO_TCR24 (TCR24) |
| --- | --- | --- | --- | --- | --- | --- | --- | --- | --- | --- | --- | --- | --- | --- |
| AAVEEGIVAGGGVTLL | -4.978e-5 | -3.795e-6 | 1.5842e-5 | 3.701e-5 | 1.545e-5 | -1.25e-6 | -5.451e-6 | -1.302e-6 | 2.247e-6 | 1.97e-6 | -4.831e-6 | -1.2378e-6 | 9.635e-6 | 1.546e-6 |
| AEKVRNLPAGHGLNAQ | 5.319e-5 | -0.0001199 | -3.193e-5 | 1.335e-5 | -1.1271e-5 | -8.015e-5 | -1.6913e-5 | -2.694e-5 | -2.944e-5 | -1.229e-5 | -3.449e-5 | -3.038e-5 | -4.113e-5 | -1.89e-5 |
| AGGVAVIKAGAATEV | 2.749e-5 | 9.403e-5 | -4.985e-5 | 2.576e-5 | 3.872e-6 | -1.653e-5 | 5.688e-5 | 3.191e-5 | 1.413e-5 | 7.935e-6 | 1.931e-5 | 2.296e-5 | 1.903e-5 | 2.636e-5 |
| AKAAVEEGIVAGGGV | -3.982e-5 | -3.046e-5 | -2.304e-5 | -3.485e-6 | 9.492e-5 | 4.6789e-5 | 6.867e-6 | 1.247e-5 | 7.483e-6 | 1.371e-5 | 9.209e-6 | -7.192e-6 | 1.526e-5 | 8.2968e-7 |
| ALVREGLRNVAAGANP | -1.224e-5 | -1.224e-5 | -1.224e-5 | -1.224e-5 | -1.224e-5 | -1.224e-5 | -1.224e-5 | -1.224e-5 | -1.224e-5 | -1.224e-5 | -1.224e-5 | -1.224e-5 | -1.224e-5 | -1.224e-5 |
